In US12091699B2, “Method for enhancing production of homeoprotein using inhibitor of lysosomal function” (Korea Advanced Institute of Science and Technology, priority 2021, dated 2024):

Experiments:
Assay type in all cases: cell-based, human
[1] = tested on: HeLa cell line that continuously produces the Otx2 homeoprotein; assay: Western blot analysis of Otx2 protein in cell lysate; conditions: for expression level of the Otx2 protein in cell lysate: HeLa cells, western blot V5 (Otx2), FIG. 2B; for intracellular expression of the Otx2 protein: FIG. 2C
Description: In order to detect a homeoprotein present inside the cell, cells were lysed with a RIPA lysate (tertiary distilled water including 20 mM Tris-HCl, pH 7.5, 150 mM NaCl, 1 mM Na2EDTA, 1 mM EGTA, 1% NP-40, 1% sodium deoxycholate, 2.5 mM sodium pyrophosphate, 1 mM β-glycerophosphate, 1 mM Na3VO4, and 1 μg/ml leupeptin), and then proteins in the cells were separated according to molecular weight by performing electrophoresis (SDS-PAGE) on the cell lysate on a polyacrylamide gel including sodium dodecyl sulfate. The gel was induced to electrically bind to a PVDF membrane after protein separation to transfer the proteins to the membrane.
The V-ATPase inhibitor is a lysosomal ion channel inhibitor, and when cells are treated with the inhibitor, the pH in the lysosome is increased, so the protein degradation by the lysosome may be suppressed because the activity of the hydrolase present in the lysosome is inhibited.
(§1) Furthermore, the level of secreted Otx2 protein and the intracellular expression level of Otx2 protein when the HeLa cells were treated with the inhibitor of lysosomal function were analyzed by a dot blot analysis and a western blot analysis.
(§2) In addition, the present inventors treated the HeLa cells with bafilomycin D (BafD) together with bafilomycin A1 (BafA1) and concanamycin A (ConA), which are types of V-ATPase inhibitors, at different concentrations, and performed an analysis in the same manner as in FIG. 2B.

[2] = tested on: HeLa cell line that continuously produces the Otx2 homeoprotein; assay: Immunocytochemical staining of intracellular Otx2 protein after treatment with inhibitor of lysosomal function; conditions: HeLa cells, treated 16 hours, FIG. 2A, vehicle: almost exclusively in cell nucleus
Description: Cells were cultured on a cover glass in a cell incubator for 24 hours or more, and treated with a fixing solution (physiological saline including 4% paraformaldehyde) at room temperature for 20 minutes to fix the cells. Next, after the cells were treated with a permeability-imparting solution (physiological saline including 0.1% TWEEN-20 (polysorbate 20)) at room temperature for 10 minutes, the cells were treated with a blocking solution (physiological saline including 10% donkey serum) at room temperature for 1 hour. Subsequently, the cells were treated with a blocking solution including a primary antibody, cultured at 4° C. for 16 hours, then treated with a blocking solution 10 including a fluorophore-conjugated secondary antibody, and cultured at room temperature for 1 hour. Then, the fluorescence signals of the cells were analyzed under an Olympus FV1000 confocal microscope.
(§3) Accordingly, the present inventors treated a HeLa cell line that continuously produces the Otx2 homeoprotein manufactured in Example 2 with a V-ATPase inhibitor and a lysosomal pH enhancer as inhibitors of lysosomal function, and confirmed a change in secretion of the homeoprotein. The V-ATPase inhibitor is a lysosomal ion channel inhibitor, and when cells are treated with the inhibitor, the pH in the lysosome is increased, so the protein degradation by the lysosome may be suppressed because the activity of the hydrolase present in the lysosome is inhibited.
Thus, specifically, after the HeLa cells were treated with each of V-ATPase inhibitors bafilomycin A1 (BafA1) and concanamycin A (ConA), and a lysosomal pH enhancer chloroquine (CQ) at different concentrations for 16 hours, the intracellular expression of the Otx2 protein was observed by immunocytochemical staining.

[3] = tested on: HeLa cell line that continuously produces the Otx2 homeoprotein; assay: Dot blot analysis of Otx2 protein secreted into cell culture solution; conditions: FIG. 2C
Description: In order to detect a homeoprotein secreted to the outside of the cell, a cell culture solution including sodium heparin was allowed to pass through a polyvinylidene difluoride (PVDF) membrane. Next, the membrane was treated with a blocking solution (TBST including 5% skim milk) and allowed to react at room temperature for 1 hour. Subsequently, the membrane was treated with a blocking solution including a primary antibody, allowed to react at 4° C. for 16 hours, then treated with a horseradish peroxidase (HRP)-conjugated secondary antibody, and cultured at room temperature for 1 hour, and then the membrane was exposed to an X-ray photosensitive film by inducing an enzymatic reaction using an ECL solution as a substrate to thereby analyze the results.
as §3, §1, §2

[4] = concentration increased from 20 nM to 200 nM
[5] = concentration increased from 5 nM to 50 nM

CO/C1=C\C(C)=C\[C@@H](C)[C@@H](O)[C@@H](C)C/C(C)=C/C=C/[C@H](OC)[C@@H]([C@@H](C)[C@@H](O)[C@H](C)[C@@]2(O)C[C@@H](O)[C@H](C)[C@@H](C(C)C)O2)OC1=O [BafA1, bafilomycin A1]
expression level of the Otx2 protein in cell lysate [1]: a big difference did not appear | intracellular expression of the Otx2 protein [1, 4]: increased | expression pattern (intracellular position) of Otx2 protein [2]: occurred even in the cytoplasm including the cell nucleus | secretion of the Otx2 protein to the outside of the cell [3, 4]: increased

CCN(CC)CCCC(C)Nc1ccnc2cc(Cl)ccc12 (stereo not drawn) [CQ, chloroquine]
expression level of the Otx2 protein in cell lysate [1]: expressed at a higher level | expression pattern (intracellular position) of Otx2 protein [2]: occurred even in the cytoplasm including the cell nucleus

C/C=C/[C@H]1O[C@@](O)([C@@H](C)[C@H](O)[C@H](C)[C@H]2OC(=O)/C(OC)=C/C(C)=C/[C@@H](C)[C@@H](O)[C@@H](CC)[C@@H](O)[C@H](C)C/C(C)=C/C=C/[C@@H]2OC)C[C@@H](O[C@H]2C[C@@H](O)[C@H](OC(N)=O)[C@@H](C)O2)[C@@H]1C [ConA, concanamycin A]
expression level of the Otx2 protein in cell lysate [1]: expressed at a higher level | intracellular expression of the Otx2 protein [1, 5]: increased | expression pattern (intracellular position) of Otx2 protein [2]: occurred even in the cytoplasm including the cell nucleus | secretion of the Otx2 protein to the outside of the cell [3, 5]: increased

bafilomycin D [BafD]
intracellular expression of the Otx2 protein [1, 4]: increased | secretion of the Otx2 protein to the outside of the cell [3, 4]: increased
